Measurements as given in paper PMC12486440, “Design, synthesis, and in silico studies of new benzofuran–pyrazole hybrids as multi-kinase inhibitors with potential antiproliferative activity” (RSC Advances, 2025).

Legend:
HOP-62 = conditions: single dose 10 μM; non-small lung carcinoma
SK-MEL-2 = conditions: single dose 10 μM; melanoma
OVCAR-5 = conditions: single dose 10 μM; ovarian carcinoma
786–0 = conditions: single dose 10 μM; renal carcinoma
A549/ATCC = conditions: single dose 10 μM; non-small lung carcinoma
LOX IMVI = conditions: single dose 10 μM; melanoma
UO-31 = conditions: single dose 10 μM; renal carcinoma
SNB-75 = conditions: single dose 10 μM; CNS cancer
MDA-MB-468 = conditions: single dose 10 μM; breast carcinoma
SF-295 = conditions: single dose 10 μM; CNS cancer
NCI-H522 = conditions: single dose 10 μM; non-small lung carcinoma
M14 = conditions: single dose 10 μM; melanoma
SF-539 = conditions: single dose 10 μM; CNS cancer
U251 = conditions: single dose 10 μM; CNS cancer
SNB-19 = conditions: single dose 10 μM; CNS cancer
OVCAR-4 = conditions: single dose 10 μM; ovarian carcinoma
SF-268 = conditions: single dose 10 μM; CNS cancer
DU-145 = conditions: single dose 10 μM; prostate carcinoma
EKVX = conditions: single dose 10 μM; non-small lung carcinoma
COLO 205 = conditions: single dose 10 μM; colon cancer
T-47D = conditions: single dose 10 μM; breast carcinoma
A498 = conditions: single dose 10 μM; renal carcinoma
HCT-15 = conditions: single dose 10 μM; colon cancer
MCF7 = conditions: single dose 10 μM; breast carcinoma
SN12C = conditions: single dose 10 μM; renal carcinoma
MALME-3M = conditions: single dose 10 μM; melanoma
SK-MEL-28 = conditions: single dose 10 μM; melanoma
SR = conditions: single dose 10 μM; leukemia
ACHN = conditions: single dose 10 μM; renal carcinoma
MOLT-4 = conditions: single dose 10 μM; leukemia
PC-3 = conditions: single dose 10 μM; prostate carcinoma
CCRF-CEM = conditions: single dose 10 μM; leukemia
[1] = test system: NCI 60 cancer cell line panel; assay: NCI 60 full panel summary; conditions: single dose 10 μM; mean over the NCI 60 panel
IGROV1 = conditions: single dose 10 μM; ovarian carcinoma
CAKI-1 = conditions: single dose 10 μM; renal carcinoma
OVCAR-3 = conditions: single dose 10 μM; ovarian carcinoma
HOP-92 = conditions: single dose 10 μM; non-small lung carcinoma
RPMI-8226 = conditions: single dose 10 μM; leukemia
NCI-H226 = conditions: single dose 10 μM; non-small lung carcinoma
SW-620 = conditions: single dose 10 μM; colon cancer
HT29 = conditions: single dose 10 μM; colon cancer
UACC-62 = conditions: single dose 10 μM; melanoma
UACC-257 = conditions: single dose 10 μM; melanoma
RXF 393 = conditions: single dose 10 μM; renal carcinoma
HCC-2998 = conditions: single dose 10 μM; colon cancer
SK-MEL-5 = conditions: single dose 10 μM; melanoma
SK-OV-3 = conditions: single dose 10 μM; ovarian carcinoma
OVCAR-8 = conditions: single dose 10 μM; ovarian carcinoma
HCT-116 = conditions: single dose 10 μM; colon cancer
K-562 = conditions: single dose 10 μM; leukemia
NCI-H23 = conditions: single dose 10 μM; non-small lung carcinoma
MDA-MB-435 = conditions: single dose 10 μM; melanoma
NCI-H460 = conditions: single dose 10 μM; non-small lung carcinoma
HL-60(TB) = conditions: single dose 10 μM; leukemia
TK-10 = conditions: single dose 10 μM; renal carcinoma
KM12 = conditions: single dose 10 μM; colon cancer
BT-549 = conditions: single dose 10 μM; breast carcinoma
NCI/ADR-RES = conditions: single dose 10 μM; ovarian carcinoma

COc1ccc(C2=NNC(c3cn(-c4ccccc4)nc3-c3cc4ccccc4o3)C2)cc1OC (stereo not drawn) [3c, 3-(Benzofuran-2-yl)-4-(3-(3,4-dimethoxyphenyl)-4,5-dihydro-1H-pyrazol-5-yl)-1-phenyl-1H-pyrazole]
GI% (HOP-62): 33.71% | GI% (SK-MEL-2): 47.50% | GI% (OVCAR-5): 41.14% | GI% (786–0): 52.36% | GI% (A549/ATCC): 57.50% | GI% (LOX IMVI): 65.24% | GI% (UO-31): 80.36% | GI% (SNB-75): 58.00% | GI% (MDA-MB-468): 78.06% | GI% (SF-295): 58.47% | GI% (NCI-H522): 51.41% | GI% (M14): 63.24% | GI% (SF-539): 56.77% | GI% (U251): 60.18% | GI% (SNB-19): 59.83% | GI% (OVCAR-4): 58.72% | GI% (SF-268): 61.15% | GI% (DU-145): 58.05% | GI% (EKVX): 57.67% | GI% (COLO 205): 47.04% | GI% (T-47D): 81.51% | GI% (A498): 7.63% | GI% (HCT-15): 49.94% | GI% (MCF7): 77.82% | GI% (SN12C): 63.01% | GI% (MALME-3M): 30.46% | GI% (SK-MEL-28): 35.60% | GI% (SR): 77.33% | GI% (ACHN): 74.84% | GI% (MOLT-4): 80.97% | GI% (PC-3): 66.98% | GI% (CCRF-CEM): 84.09% | Mean GI% [1]: 60.71% | GI% (IGROV1): 61.79% | GI% (CAKI-1): 76.85% | GI% (OVCAR-3): 65.22% | GI% (HOP-92): 75.25% | GI% (RPMI-8226): 88.22% | GI% (NCI-H226): 68.39% | GI% (SW-620): 47.04% | GI% (HT29): 64.31% | GI% (UACC-62): 62.47% | GI% (UACC-257): 45.64% | GI% (RXF 393): 36.89% | GI% (HCC-2998): 64.60% | GI% (SK-MEL-5): 74.73% | GI% (SK-OV-3): 32.78% | GI% (OVCAR-8): 63.70% | GI% (HCT-116): 74.37% | GI% (K-562): 87.48% | GI% (NCI-H23): 53.25% | GI% (MDA-MB-435): 65.91% | GI% (NCI-H460): 81.94% | GI% (HL-60(TB)): 88.80% | GI% (TK-10): 42.27% | GI% (KM12): 68.12%

3-(5-(Benzofuran-2-yl)-1-phenyl-1H-pyrazol-3-yl)-1-(3,4-dimethoxyphenyl)prop-2-en-1-one [2c]
GI% (HOP-62): 4.42% | GI% (OVCAR-5): 0.00% | GI% (786–0): 2.44% | GI% (BT-549): 16.27% | GI% (UO-31): 15.32% | GI% (MDA-MB-468): 0.93% | GI% (SF-295): 9.48% | GI% (NCI-H522): 1.92% | GI% (M14): 1.79% | GI% (SF-539): 4.21% | GI% (SNB-19): 4.96% | GI% (SF-268): 1.66% | GI% (EKVX): 0.81% | GI% (T-47D): 9.23% | GI% (A498): 6.80% | GI% (HCT-15): 1.66% | GI% (MCF7): 9.78% | GI% (SN12C): 10.90% | GI% (MALME-3M): 5.86% | GI% (SR): 17.15% | GI% (ACHN): 0.70% | GI% (MOLT-4): 4.38% | GI% (NCI/ADR-RES): 1.79% | GI% (PC-3): 7.06% | GI% (CCRF-CEM): 8.09% | Mean GI% [1]: 2.16% | GI% (CAKI-1): 10.30% | GI% (HOP-92): 13.94% | GI% (RPMI-8226): 4.63% | GI% (NCI-H226): 1.83% | GI% (UACC-62): 4.68% | GI% (SK-MEL-5): 1.65% | GI% (SK-OV-3): 11.15% | GI% (HCT-116): 0.17% | GI% (K-562): 5.48% | GI% (HL-60(TB)): 6.49% | GI% (TK-10): 6.22%
